Target: T1, PI3Kα H1047R (T47D cells) (Homo sapiens, UniProt P42336, H1047R)
T1 construct: endogenous in cells; host or cells: T47D cells
Assay: PI3Kα cellular assay: pAKT HTRF in T47D cells after EGF stimulation
Type: cell-based
Conditions: for IC50: T47D cells (PI3Kα H1047R), pAKT S473 HTRF
How it was run: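 T47D cells (PIK3CA H1047R) serum-starved 16 h, then treated 1 h at 37 °C with compound (10,000 nM top, 3-fold steps to 0.5 nM). After 10 min stimulation with 20 ng/mL EGF, cells were lysed and pAKT measured by HTRF.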

[1] = selectivity T47D (H1047R) over SKBR3 (WT), pAKT HTRF
[2] = selectivity of T47D (H1047R) over SKBR3 (WT) pAKT IC50
[3] = 1 hr compound, 20 ng/ml EGF 10 min

T1 sequence (P42336 whole entry H1047R): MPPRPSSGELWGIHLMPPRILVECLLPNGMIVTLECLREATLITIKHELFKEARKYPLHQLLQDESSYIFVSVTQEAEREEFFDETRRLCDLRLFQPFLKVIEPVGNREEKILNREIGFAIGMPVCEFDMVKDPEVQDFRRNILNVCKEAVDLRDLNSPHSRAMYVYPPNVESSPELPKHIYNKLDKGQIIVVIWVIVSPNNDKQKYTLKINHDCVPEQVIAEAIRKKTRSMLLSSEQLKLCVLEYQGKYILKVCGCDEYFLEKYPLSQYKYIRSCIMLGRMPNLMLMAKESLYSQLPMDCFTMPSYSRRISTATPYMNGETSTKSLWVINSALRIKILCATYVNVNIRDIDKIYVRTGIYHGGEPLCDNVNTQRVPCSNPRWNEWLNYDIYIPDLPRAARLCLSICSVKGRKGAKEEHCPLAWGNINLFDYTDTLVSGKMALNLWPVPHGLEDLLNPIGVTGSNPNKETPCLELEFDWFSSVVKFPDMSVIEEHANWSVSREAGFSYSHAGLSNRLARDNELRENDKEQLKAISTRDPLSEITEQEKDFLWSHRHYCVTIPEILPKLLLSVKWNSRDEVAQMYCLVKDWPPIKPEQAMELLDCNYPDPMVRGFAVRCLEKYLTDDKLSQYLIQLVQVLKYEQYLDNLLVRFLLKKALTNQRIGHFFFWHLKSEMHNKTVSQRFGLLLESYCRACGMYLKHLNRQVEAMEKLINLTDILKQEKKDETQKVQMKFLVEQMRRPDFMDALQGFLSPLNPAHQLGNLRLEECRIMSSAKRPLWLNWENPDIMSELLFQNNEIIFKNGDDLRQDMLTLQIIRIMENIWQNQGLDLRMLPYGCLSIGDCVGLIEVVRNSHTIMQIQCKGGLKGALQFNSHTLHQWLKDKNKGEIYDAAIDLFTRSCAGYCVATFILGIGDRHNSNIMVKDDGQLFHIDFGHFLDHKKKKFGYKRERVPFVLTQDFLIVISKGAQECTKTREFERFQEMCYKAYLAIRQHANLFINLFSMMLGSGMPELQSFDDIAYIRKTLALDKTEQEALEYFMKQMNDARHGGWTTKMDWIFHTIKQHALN
T1 sequence (P27986 whole entry partner): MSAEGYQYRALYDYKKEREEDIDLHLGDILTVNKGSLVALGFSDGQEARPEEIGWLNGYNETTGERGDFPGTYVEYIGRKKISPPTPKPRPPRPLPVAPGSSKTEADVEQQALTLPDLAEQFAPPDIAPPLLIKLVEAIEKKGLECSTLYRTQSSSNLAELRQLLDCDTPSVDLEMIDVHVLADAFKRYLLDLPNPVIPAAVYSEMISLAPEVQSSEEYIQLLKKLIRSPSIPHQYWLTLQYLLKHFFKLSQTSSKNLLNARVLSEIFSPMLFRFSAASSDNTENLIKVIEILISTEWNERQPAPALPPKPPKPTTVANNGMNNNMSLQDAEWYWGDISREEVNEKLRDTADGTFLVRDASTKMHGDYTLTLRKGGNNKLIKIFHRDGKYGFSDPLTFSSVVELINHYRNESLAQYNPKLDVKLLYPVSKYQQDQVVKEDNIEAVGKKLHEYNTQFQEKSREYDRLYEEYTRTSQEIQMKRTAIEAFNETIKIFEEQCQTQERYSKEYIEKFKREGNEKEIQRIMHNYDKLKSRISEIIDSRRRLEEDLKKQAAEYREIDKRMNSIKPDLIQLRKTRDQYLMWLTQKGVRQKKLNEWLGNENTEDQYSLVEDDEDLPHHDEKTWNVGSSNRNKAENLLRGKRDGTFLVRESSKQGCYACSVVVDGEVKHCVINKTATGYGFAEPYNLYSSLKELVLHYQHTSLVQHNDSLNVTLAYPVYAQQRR

Compound	IC50 (EGF stimulation)	T47D pAKT S473 HTRF IC50 (H1047R): T47D (H1047R) selectivity over SKBR3 (WT) [1]	T47D pAKT S473 HTRF IC50 (H1047R): T47D (H1047R) selectivity over SKBR3 (WT) [2]	IC50 [3]
Cc1cc([C@H](C)Nc2ccccc2C(=O)O)c2nc(-c3ccc4c(c3)c(C#N)nn4C)c(C)c(=O)n2c1 [Compound 1082]	500 to 2000 nM	B (B denotes 20-fold≥value>5-fold)		
Cc1cc(C(C)Nc2ccccc2C(=O)O)c2nc(-c3ccc(C4CNC4)nc3)c(C)c(=O)n2c1 (centres unmarked) [Compound 1303]	> 2000 nM	C (C denotes ≤5-fold)		
Cc1cc([C@@H](C)Nc2cccc(CO)c2C(=O)O)c2nc(-c3ccc4c(c3)c(C)nn4C)cc(=O)n2c1 [Compound 940]	> 2000 nM		C (C denotes ≤5-fold)	
CC(Nc1ccccc1C(=O)O)c1cc(C(F)(F)F)cn2c(=O)cc(N3Cc4ccccc4C3)nc12 (centres unmarked) [Compound 921]	> 2000 nM		C (C denotes ≤5-fold)	
Cc1cc(C(C)Nc2ccsc2-c2ccnnc2)c2nc(N3Cc4ccccc4C3)c(C)c(=O)n2c1 (centres unmarked) [Compound 1409, 2-(isoindolin-2-yl)-3,7-dimethyl-9-(1-((2-(pyridazin-4-yl)thiophen-3-yl)amino)ethyl)-4H-pyrido[1,2-a]pyrimidin-4-one]	100 to 500 nM	A (A denotes >20-fold)		
Cc1cc(C(C)Nc2ccccc2C(=O)O)c2nc(-c3ccc(S(N)(=O)=O)cc3)cc(=O)n2c1 (centres unmarked) [Compound 302]		B (B denotes 20-fold≥value>5-fold)		500 to 2000 nM
Cc1cc([C@@H](C)Nc2ccccc2C(=O)O)c2nc(-c3ccc(CC4CCN(C(=O)C5CC5)CC4)c(F)c3)c(C)c(=O)n2c1 [Compound 1314]	100 to 500 nM	A (A denotes >20-fold)		
Cc1cc([C@@H](C)Nc2ccccc2-c2ccnnc2)c2nc(N3Cc4ccccc4C3)c(C3CC3)c(=O)n2c1 [Compound 847]	> 2000 nM		C (C denotes ≤5-fold)	
Cc1cc([C@H](C)Nc2ccccc2C(=O)O)c2nc(-c3cc(C(N)=O)c4[nH]ccc4c3)cc(=O)n2c1 [Compound 754]	> 2000 nM		C (C denotes ≤5-fold)	
Cc1cc([C@H](C)N[C@H](C(=O)O)c2ccccc2)c2nc(N3CCOCC3)cc(=O)n2c1 [Compound 650]	> 2000 nM		C (C denotes ≤5-fold)	
Cc1cc([C@@H](C)Nc2ccccc2C(=O)O)c2nc(-c3ccc4c(c(N)nn4C)c3C)cc(=O)n2c1 [Compound 702]	500 to 2000 nM		B (B denotes 20-fold≥value>5-fold)	
Cc1cc(C(C)Nc2ccccc2C(=O)O)c2nc(C3CCN(CC(N)=O)CC3)cc(=O)n2c1 (centres unmarked) [Compound 509]		C (C denotes ≤5-fold)		> 2000 nM
Cc1cc(C(C)Nc2cnncc2C(=O)O)c2nc(N3CCOCC3)cc(=O)n2c1 (centres unmarked) [Compound 357]		C (C denotes ≤5-fold)		> 2000 nM
Cc1cc(C(C)Nc2ccccc2C(=O)O)c2nc(-c3ccc4c(c3)c(N)nn4C)cc(=O)n2c1 (centres unmarked) [Compound 347]		A (A denotes >20-fold)		100 to 500 nM
COc1cc(NC(C)c2cc(C)cn3c(=O)cc(N4CCOCC4)nc23)c(C(=O)O)cc1OC (centres unmarked) [Compound 325]		C (C denotes ≤5-fold)		> 2000 nM
Cc1cc([C@@H](C)Nc2ccccc2C(=O)O)c2nc(-c3cnc(C)c(Cl)c3)cc(=O)n2c1 [Compound 1157]	100 to 500 nM	A (A denotes >20-fold)		
Cc1cc([C@@H](C)Nc2ccccc2-c2ccnnc2)c2nc(-c3cccnc3)c(C)c(=O)n2c1 [Compound 1144]	> 2000 nM	C (C denotes ≤5-fold)		

Compound	IC50 (EGF stimulation)	T47D pAKT S473 HTRF IC50 (H1047R): T47D (H1047R) selectivity over SKBR3 (WT) [1]	T47D pAKT S473 HTRF IC50 (H1047R): T47D (H1047R) selectivity over SKBR3 (WT) [2]	IC50 [3]
Cc1cc([C@@H](C)Nc2ccccc2C(=O)O)c2nc(N3CCS(=O)(=O)CC3)cc(=O)n2c1 [Compound 138]		C (C denotes ≤5-fold)		> 2000 nM
Cc1cc([C@H](C)Nc2ccccc2C(=O)O)c2nc(-c3ccc4c(c3)CC(F)(F)C4)cc(=O)n2c1 [Compound 823]	> 2000 nM		C (C denotes ≤5-fold)	
Cc1cc([C@H](C)Nc2ccccc2C(=O)O)c2nc(-c3ccccc3)cc(=O)n2c1 [Compound 629]		A (A denotes >20-fold)		< 100 nM
Cc1cc([C@H](C)Nc2ccccc2C(=O)O)c2nc(-c3cc4c(cc3C)CC(N)=N4)cc(=O)n2c1 [Compound 811]	500 to 2000 nM		B (B denotes 20-fold≥value>5-fold)	
Cc1cc([C@H](C)Nc2ccccc2C(=O)O)c2nc(-c3ccnc(C)c3)c(C)c(=O)n2c1 [Compound 1068]	> 2000 nM	C (C denotes ≤5-fold)		
Cc1cc([C@@H](C)Nc2ccccc2C(=O)O)c2nc(-c3ccc4[nH]nc(C)c4c3)cc(=O)n2c1 [Compound 841]			C (C denotes ≤5-fold)	
Cc1cc(C(C)Nc2ccccc2C(=O)O)c2nc(-c3cc(F)cc(C#N)c3)c(C)c(=O)n2c1 (centres unmarked) [Compound 1103]	< 100 nM	A (A denotes >20-fold)		
COc1ccc(C(=O)O)c(NC(C)c2cc(C)cn3c(=O)cc(N4CCOCC4)nc23)c1 (centres unmarked) [Compound 323]		C (C denotes ≤5-fold)		> 2000 nM
C=CC(=O)Nc1ccc(C(=O)O)c(NC(C)c2cc(C)cn3c(=O)cc(N4Cc5ccccc5C4)nc23)c1 (centres unmarked) [Compound 840]	> 2000 nM		C (C denotes ≤5-fold)	
Cc1cc(C(C)Nc2ccccc2C(N)=O)c2nc(-c3ccnc(C4CC4)c3)c(C)c(=O)n2c1 (centres unmarked) [Compound 1090]	< 100 nM	A (A denotes >20-fold)		
Cc1cc(C(C)Nc2ccccc2C(=O)O)c2nc(-c3ccc4c(c(N)nn4C)c3C)c(C)c(=O)n2c1 (centres unmarked) [Compound 706]	500 to 2000 nM		B (B denotes 20-fold≥value>5-fold)	
Cc1cc([C@@H](C)Nc2ccccc2C(=O)O)c2nc(-c3ccc4c(c3)CC(F)(F)C4)c(C)c(=O)n2c1 [Compound 853]	< 100 nM		A (A denotes >20-fold)	
Cc1cc([C@H](C)Nc2ccccc2C(=O)O)c2nc(-n3cc(C(N)=O)c4ccccc43)cc(=O)n2c1 [Compound 772]	> 2000 nM		C (C denotes ≤5-fold)	
CCc1cc([C@@H](C)Nc2ccccc2C(=O)O)c2nc(N3CCOCC3)cc(=O)n2c1 [Compound 149]		C (C denotes ≤5-fold)		> 2000 nM
CNc1nn(C)c2ccc(-c3cc(=O)n4cc(C)cc(C(C)Nc5ccccc5C(=O)O)c4n3)cc12 (centres unmarked) [Compound 758]	100 to 500 nM		A (A denotes >20-fold)	
Cc1cc(C(C)Nc2ccc(F)cc2C(=O)O)c2nc(N3CCOCC3)cc(=O)n2c1 (centres unmarked) [Compound 288]		B (B denotes 20-fold≥value>5-fold)		500 to 2000 nM
